Data from patent publication US20250127825A1, “PROBIOTIC COMPOSITIONS AND METHODS OF USE THEREOF FOR WEIGHT LOSS” (priority 2023, published 2025).

Tested on: C. elegans worms
Experiment: Nile Red lipid staining of worm intestine after 48 hours on experimental diet, non-obesogenic setting
Assay type: in vivo
Conditions: for Normalized Nile Red fluorescence, Mean / Normalized Nile Red fluorescence, Median: divided by mean fluorescence of standard diet; for Mean Diff. of fluorescence, Standard E. coli Diet vs. Orlistat / Mean Diff. of fluorescence, Orlistat vs. UF1 100 mg/ml / Mean Diff. of fluorescence, Orlistat vs. UF1 OD7 / Mean Diff. of fluorescence, Standard E. coli Diet vs. UF1 100 mg/ml / Mean Diff. of fluorescence, Standard E. coli Diet vs. UF1 OD7: Holm-Šidák's multiple comparisons test; for Nile Red fluorescence intensity, Mean / Nile Red fluorescence intensity, Median: 48 hours, non-obesogenic; for reduced fat levels compared to the Orlistat control / reduced fat levels compared to the standard E. coli OP50 control diet: reduction
Experimental: In this example the weight loss potential of the UF1 probiotic strain was studied. The UF1 probiotic strain was tested in a non-obesogenic setting by measuring the amount of internal fat in UF1-treated worms compared to no treatment controls. Orlistat treatment was also included as a positive control for fat reduction.
Methodology—Worms were raised to the L4 larval stage using standard plate culture methods. The L4 larvae were then loaded into a microfluidic chip and fed a diet of live E. coli OP50 (20 mg/ml) in liquid nematode growth media (NGM). After 24 hours on the chip, the media for each experimental cohort was switched to the experimental diet. The animals were maintained on each experimental diet for 48 hours before being fixed and stained with Nile Red—a fluorescent dye that binds lipids. A fluorescent microscopy system was then used to image the brightness of the lipid staining in the intestine of the worms, which correlates to the levels of fat in each animal.
Nile Red gives off fluorescence when illuminated with green light. The brightness of the intestinal saining in each worm per trial was quantified. This allows the measurement of the natural variability in fat levels across individuals. ANOVA was then used to determine if the distributions across treatment conditions were statistically different to one another.
All datasets were combined by normalizing the data in each trial by dividing it by the mean fluorescence value of the standard diet. In the combined data, the UF1 diets reduced fat levels compared to the standard E. coli OP50 control diet by approximately 47% and 46%, respectively. The subjects also had reduced fat levels compared to the Orlistat control by approximately 38% and 37%, respectively.

[1] = All trials combined, Orlistat 6 μg/ml
[2] = Trial 1, live OP50 20 mg/ml + Orlistat 6 μg/ml
[3] = Trial 2, live OP50 20 mg/ml + Orlistat 6 μg/ml
[4] = Trial 3, live OP50 20 mg/ml + Orlistat 6 μg/ml
[5] = All trials combined, UF1 100 mg/ml diet
[6] = All trials combined, UF1 OD7 diet
[7] = All trials combined, normalized, UF1 100 mg/ml diet
[8] = All trials combined, normalized, UF1 OD7 diet
[9] = All trials combined, Holm-Šídák's multiple comparisons test
[10] = Combined data, UF1 100 mg/ml diet
[11] = Trial 1, UF1 100 mg/ml diet, mean fluorescence
[12] = Trial 1, UF1 OD7 diet, mean fluorescence
[13] = Trial 2, UF1 100 mg/ml diet, mean fluorescence
[14] = Trial 2, UF1 OD7 diet, mean fluorescence
[15] = Trial 3, UF1 100 mg/ml diet, mean fluorescence

Question: `CCCCCCCCCCC[C@@H](C[C@@H]1OC(=O)[C@H]1CCCCCC)OC(=O)[C@H](CC(C)C)NC=O` [Orlistat, reference compound] was tested. Which “Normalized Nile Red fluorescence, Mean” value [1] did it give?
Answer: The value was 0.8579.

Question: What about the “Normalized Nile Red fluorescence, Median” value [1] of the same compound?
Answer: Its value is 0.8801.

Question: And the “Percentage Change from Standard Diet” value (All trials combined, normalized, Orlistat 6 μg/ml)?
Answer: The value was −14.21%.

Question: And the “Mean Diff. of normalized fluorescence, Standard E. coli Diet vs. Orlistat” value (All trials combined, Holm-Šídák's multiple comparisons test, Orlistat 6 μg/ml)?
Answer: The value was 0.1421.

Question: And the “Mean Diff. of fluorescence, Standard E. coli Diet vs. Orlistat” value (Trial 1, Orlistat 6 μg/ml)?
Answer: The value was 628190.

Question: And the “Nile Red fluorescence intensity, Mean” value [2]?
Answer: The value was 10354899.

Question: What about the “Nile Red fluorescence intensity, Median” value [2] of the same compound?
Answer: Its value is 10198510.

Question: And the “Percentage Change from Standard Diet” value (Trial 1, live OP50 20 mg/ml + Orlistat 6 μg/ml, mean fluorescence)?
Answer: The value was −5.72%.

Question: What about the “Mean Diff. of fluorescence, Standard E. coli Diet vs. Orlistat” value (Trial 2, Orlistat 6 μg/ml) of the same compound?
Answer: Its value is 1621884.

Question: And the “Nile Red fluorescence intensity, Mean” value [3]?
Answer: The value was 9011934.

Question: What about the “Nile Red fluorescence intensity, Median” value [3] of the same compound?
Answer: The value was 8938493.

Question: What about the “Percentage Change from Standard Diet” value (Trial 2, live OP50 20 mg/ml + Orlistat 6 μg/ml, mean fluorescence) of the same compound?
Answer: The value was −15.25%.

Question: And the “Mean Diff. of fluorescence, Standard E. coli Diet vs. Orlistat” value (Trial 3, Orlistat 6 μg/ml)?
Answer: Its value is 9789069.

Question: And the “Nile Red fluorescence intensity, Mean” value [4]?
Answer: The value was 28212711.

Question: And the “Nile Red fluorescence intensity, Median” value [4]?
Answer: Its value is 23127648.

Question: And the “Percentage Change from Standard Diet” value (Trial 3, live OP50 20 mg/ml + Orlistat 6 μg/ml, mean fluorescence)?
Answer: Its value is −25.76%.

Question: How did the “Normalized Nile Red fluorescence, Mean” value [5] turn out when Propionibacterium freudenreichii UF1 was run?
Answer: The value was 0.5321.

Question: What about the “Normalized Nile Red fluorescence, Median” value [5] of the same compound?
Answer: The value was 0.5247.

Question: What about the “Normalized Nile Red fluorescence, Mean” value [6] of the same compound?
Answer: The value was 0.5417.

Question: And the “Normalized Nile Red fluorescence, Median” value [6]?
Answer: Its value is 0.5207.

Question: And the “Percentage Change from Orlistat” value [7]?
Answer: The value was −37.98%.

Question: What about the “Percentage Change from Standard Diet” value [7] of the same compound?
Answer: The value was −46.79%.

Question: What about the “Percentage Change from Orlistat” value [8] of the same compound?
Answer: The value was −36.86%.

Question: And the “Percentage Change from Standard Diet” value [8]?
Answer: Its value is −45.83%.

Question: What about the “Mean Diff. of normalized fluorescence, Orlistat vs. UF1 100 mg/ml” value [9] of the same compound?
Answer: The value was 0.3259.

Question: And the “Mean Diff. of normalized fluorescence, Orlistat vs. UF1 OD7” value [9]?
Answer: The value was 0.3162.

Question: What about the “Mean Diff. of normalized fluorescence, Standard E. coli Diet vs. UF1 100 mg/ml” value [9] of the same compound?
Answer: Its value is 0.4679.

Question: And the “Mean Diff. of normalized fluorescence, Standard E. coli Diet vs. UF1 OD7” value [9]?
Answer: The value was 0.4583.

Question: And the “reduced fat levels compared to the Orlistat control” value [10]?
Answer: The value was “approximately 38%”.

Question: What about the “reduced fat levels compared to the standard E. coli OP50 control diet” value [10] of the same compound?
Answer: The value was “approximately 47%”.

Question: What about the “reduced fat levels compared to the Orlistat control” value (Combined data, UF1 OD7 diet) of the same compound?
Answer: Its value is about 37%.

Question: What about the “reduced fat levels compared to the standard E. coli OP50 control diet” value (Combined data, UF1 OD7 diet) of the same compound?
Answer: Its value is about 46%.

Question: What about the “Mean Diff. of fluorescence, Orlistat vs. UF1 100 mg/ml” value (Trial 1) of the same compound?
Answer: The value was 5160787.

Question: What about the “Mean Diff. of fluorescence, Orlistat vs. UF1 OD7” value (Trial 1) of the same compound?
Answer: Its value is 5293675.

Question: And the “Mean Diff. of fluorescence, Standard E. coli Diet vs. UF1 100 mg/ml” value (Trial 1)?
Answer: The value was 5788977.

Question: What about the “Mean Diff. of fluorescence, Standard E. coli Diet vs. UF1 OD7” value (Trial 1) of the same compound?
Answer: Its value is 5921865.

Question: What about the “less fat than the Orlistat control” value (Trial 1, UF1 100 mg/ml diet) of the same compound?
Answer: The value was “approximately 50%”.

Question: What about the “Nile Red fluorescence intensity, Mean” value (Trial 1, UF1 100 mg/ml diet) of the same compound?
Answer: The value was 5194112.

Question: And the “Nile Red fluorescence intensity, Median” value (Trial 1, UF1 100 mg/ml diet)?
Answer: Its value is 5124444.

Question: And the “Percentage Change from Orlistat” value [11]?
Answer: The value was −49.84%.

Question: What about the “Percentage Change from Standard Diet” value [11] of the same compound?
Answer: The value was −52.71%.

Question: And the “reduced fat levels compared to the standard E. coli OP50 control diet” value (Trial 1, UF1 100 mg/ml diet)?
Answer: The value was “approximately 53%”.

Question: And the “less fat than the Orlistat control” value (Trial 1, UF1 OD7 diet)?
Answer: The value was about 51%.

Question: What about the “Nile Red fluorescence intensity, Mean” value (Trial 1, UF1 OD7 diet) of the same compound?
Answer: Its value is 5061224.

Question: And the “Nile Red fluorescence intensity, Median” value (Trial 1, UF1 OD7 diet)?
Answer: The value was 5147920.

Question: And the “Percentage Change from Orlistat” value [12]?
Answer: Its value is −51.12%.

Question: What about the “Percentage Change from Standard Diet” value [12] of the same compound?
Answer: The value was −53.92%.

Question: And the “reduced fat levels compared to the standard E. coli OP50 control diet” value (Trial 1, UF1 OD7 diet)?
Answer: Its value is about 54%.

Question: What about the “Mean Diff. of fluorescence, Orlistat vs. UF1 100 mg/ml” value (Trial 2) of the same compound?
Answer: Its value is 1399524.

Question: What about the “Mean Diff. of fluorescence, Orlistat vs. UF1 OD7” value (Trial 2) of the same compound?
Answer: Its value is 2435073.

Question: And the “Mean Diff. of fluorescence, Standard E. coli Diet vs. UF1 100 mg/ml” value (Trial 2)?
Answer: The value was 3021408.

Question: And the “Mean Diff. of fluorescence, Standard E. coli Diet vs. UF1 OD7” value (Trial 2)?
Answer: The value was 4056957.

Question: And the “less fat than the Orlistat control” value (Trial 2, UF1 100 mg/ml diet)?
Answer: Its value is “approximately 16%”.

Question: And the “Nile Red fluorescence intensity, Mean” value (Trial 2, UF1 100 mg/ml diet)?
Answer: The value was 7612410.

Question: And the “Nile Red fluorescence intensity, Median” value (Trial 2, UF1 100 mg/ml diet)?
Answer: Its value is 7441676.

Question: And the “Percentage Change from Orlistat” value [13]?
Answer: The value was −15.53%.

Question: What about the “Percentage Change from Standard Diet” value [13] of the same compound?
Answer: The value was −28.41%.

Question: And the “reduced fat levels compared to the standard E. coli OP50 control diet” value (Trial 2, UF1 100 mg/ml diet)?
Answer: Its value is “approximately 28%”.

Question: And the “less fat than the Orlistat control” value (Trial 2, UF1 OD7 diet)?
Answer: Its value is about 27%.

Question: What about the “Nile Red fluorescence intensity, Mean” value (Trial 2, UF1 OD7 diet) of the same compound?
Answer: Its value is 6576861.

Question: And the “Nile Red fluorescence intensity, Median” value (Trial 2, UF1 OD7 diet)?
Answer: The value was 6691779.

Question: What about the “Percentage Change from Orlistat” value [14] of the same compound?
Answer: Its value is −27.02%.

Question: What about the “Percentage Change from Standard Diet” value [14] of the same compound?
Answer: Its value is −38.15%.

Question: What about the “reduced fat levels compared to the standard E. coli OP50 control diet” value (Trial 2, UF1 OD7 diet) of the same compound?
Answer: Its value is about 38%.

Question: And the “Mean Diff. of fluorescence, Orlistat vs. UF1 100 mg/ml” value (Trial 3)?
Answer: Its value is 9045435.

Question: And the “Mean Diff. of fluorescence, Standard E. coli Diet vs. UF1 100 mg/ml” value (Trial 3)?
Answer: Its value is 18834504.

Question: And the “less fat than the Orlistat control” value (Trial 3, UF1 100 mg/ml diet)?
Answer: Its value is “approximately 32%”.

Question: What about the “Nile Red fluorescence intensity, Mean” value (Trial 3, UF1 100 mg/ml diet) of the same compound?
Answer: Its value is 19167276.

Question: And the “Nile Red fluorescence intensity, Median” value (Trial 3, UF1 100 mg/ml diet)?
Answer: The value was 20425415.

Question: What about the “Percentage Change from Orlistat” value [15] of the same compound?
Answer: Its value is −32.06%.

Question: And the “Percentage Change from Standard Diet” value [15]?
Answer: Its value is −49.56%.

Question: And the “reduced fat levels compared to the standard E. coli OP50 control diet” value (Trial 3, UF1 diets (UF1 100 mg/ml))?
Answer: The value was “approximately 50%”.

Question: What about the “reduction in fat level compared with Orlistat” value (UF1 diets, conclusion in words) of the same compound?
Answer: The value was “stronger reduction in fat level than the anti-obesity drug Orlistat”.

Question: And the “levels of fat in the intestines of C. elegans worms” value (non-obesogenic conditions, conclusion in words)?
Answer: Its value is “reduced the levels of fat”.
